{
  "source": "patent US4797284A",
  "about": "“Transdermal drug delivery system” (Merck & Co., Inc., priority 1986, dated 1989)",
  "format_in_all_cases": "physicochemical",
  "key": {"[1]": {"experiment": "diffusion coefficient of drug in the membrane (Dm), side-by-side diffusion cell", "settings": "7.5 percent ethylene vinyl acetate copolymer film (PE-75)", "experimental": "The diffusion coefficient of drug in the membrane, Dm or Dm', is determined by mounting the membrane between two chambers of a side-by-sidediffusion cell. A determined amount of drug in solution (donor phase) is placed in one chamber and a receptor solvent in the other, into which the drug diffuses and in which it will remain substantially below its saturation solubility (receptor phase). The cells are stirred while maintained in a constant temperature bath, preferably at 32° C. The receptor phase is sampled from time to time and assayed for drug, and steady state flux through the membrane calculated. Km, the partition coefficient between the donor solution and membrane, is determined by equilibrating a known volume of donor solution at 32° C., then assaying the solution for change in drug concentration to determine partitioning between membrane and donor. The diffusion coefficient of the drug in the membrane is calculated from the steady state Fick's law equation, which for semi-permeable membrane is\nInitially, Dr was determined for timolol in a commercially available acrylate film-forming material, a 30 percent weight/weight (w/w) vinyl acetate-acrylate copolymer in 53:11:36 ethyl acetate:toluene:ethanol solvent (Gelva® RA-737 multipolymer solution obtained from Monsanto) in the manner previously described. […]"}, "[2]": {"experiment": "crystallization of dissolved drug in unitary solid reservoir of dissolved and undissolved drug", "text": "Generally, the structure of a transdermal bandage or device consists of (a) a transdermal delivery system comprising an impermeable backing, a drug-containing reservoir, a rate-controlling membrane on the side to be ultimately proximate to the skin of the patient and (b) a means of attaching the system to the dermal surface. In the known systems, the reservoir, the source of supply for the drug, whether a single solid unit, a walled unit or a unit employing drug containing micro-capsules within the reservoir structure, contains the drug partly in particulate form and partly in solution i.e., contains drug in excess of its saturation solubility. During use, the drug in solution migrates to the permeable membrane surface, passes through the membrane and onto the skin for absorption. As the dissolved drug passes through the membrane some of the undissolved drug dissolves and there is, until the supply of undissolved drug is exhausted, a mixture of both dissolved and undissolved drug in the reservoir. The presence of dissolved and undissolved drug is considered necessary to provide for the near zero order rate of delivery, zero order being the rate of delivery which is constant or independent of time. […]"}, "[3]": {"experiment": "diffusion coefficient of drug in the reservoir (Dr), release from drug-bearing film into stirred receptor solution", "settings": "30 percent w/w vinyl acetate-acrylate copolymer in 53:11:36 ethyl acetate:toluene:ethanol (Gelva RA-737); timolol free base", "experimental": "When a solid reservoir is employed, the diffusion coefficient of the drug in the reservoir, Dr, is determined by first dissolving the drug to be used in a solution of matrix-forming polymer at a concentration below the saturation solubility of the drug in the polymer solution, and then coating the solution and allowing the coating to dry or curing the coating to form a drug bearing film. The coating may be made on a releasable surface so that a free film is employed in the diffusion coefficient determination or may be made on an impermeable backing material in which case the film with backing is employed in making the determination. […] The receptor solution, which is maintained at a constant temperature, preferably 32° C., is sampled at appropriate intervals and quantitative determination of drug concentration made by HPLC (high pressure liquid chromatography) with UV detection or by other suitable means based on the physical-chemical characteristics of the drug. The value for Dr is then determined by a nonlinear regression fit of observed data to either the earlier time or the late time approximation as is appropriate for drug release from a continuous matrix containing only dissolved drug as discussed in Baker et al, \"Controlled Release: Mechanisms and Rates\" in Advances in Experimental Medicine and Biology, Vol 47, page 41, Eds. Tanquary et al, Plenum Press, N.Y., 1974. […]"}},
  "data": [
    {"smiles": "CC(C)(C)NC[C@H](O)COc1nsnc1N1CCOCC1", "note": "[timolol]", "values": [
      {"measurement": "Dm (diffusion coefficient of drug in membrane)", "setting": "[1]", "result": "2.85×10^-6 cm^2 /hour"},
      {"measurement": "crystallization of dissolved drug after fabrication", "setting": "[2]", "result": "the dissolved drug often slowly crystallizes subsequent to fabrication"},
      {"measurement": "Dr (diffusion coefficient of drug in reservoir)", "setting": "[3]", "result": "1.58×10^-6 cm^2 /hour"}
    ]}
  ]
}
